Laboratory results as given in patent publication US20140045856A1, “4-Methyl-2,3,5,9,9b-pentaaza-cyclopenta[a]naphthalenes” (BOEHRINGER INGELHEIM INTERNATIONAL GMBH, priority 2012, published 2014).
Like-named read-outs stand apart in the source and are kept apart here.

Tests used:
PDE10 = PDE10 (Homo sapiens, UniProt Q9Y233); test: PDE10 assay with fluorescent substrate (IMAP, fluorescence polarization); assay type: biochemical
Description: (§1) c) Phosphodiesterase (PDE) 2A and 10 Assay with Fluorescent Substrate
(§2) The PDE reaction cleaves cAMP to AMP. The IMAP system (Molecular Device) using fluorescence polarization (FP) as detection principle was used to measure enzyme activity. A fluorescent labeled cAMP was used as substrate for the reaction, generating a labeled AMP. The fluorescent AMP binds specifically to the large M(III)-based nano-particles which reduces the rotational speed of the substrate and thus increases its polarization.
(§3) The inhibition of PDE 2A or 10 enzyme activity was assessed using IMAP-Phosphodiesterase-cAMP fluorescence labeled substrate (Molecular Devices, Order No. R7506), IMAP TR-FRET screening express (Molecular Devices, Order No. R8160, the TR-FRET component will not be used) and PDE 2A or PDE10 protein expressed upon baculovirus infection in SF9 cells. The cells were incubated after infection for ˜3 days and protein production was confirmed by Western Blot. The cells were collected by centrifugation and the pellet frozen in liquid nitrogen before it was resuspended in PBS containing 1% Triton X-100 and protease inhibitors.
(§4) All reactions were performed in 384 well plates, Perkin Elmer black optiplates and IMAP reaction buffer with 0.1% Tween20 (kit component)
(§5) Compounds were serial diluted in DMSO. With an intermediate dilution step with reaction buffer DMSO concentration was reduced to achieve 1% DMSO in the assay reaction. Setup of the assay started with 10 μl enzyme (˜10 ng/well, depending on prep. batch), 5 μl compound, reaction was started by addition of 5 μl labeled cAMP (30 nM, final concentration), immediately mixed for 15 seconds on a Eppendorf mixmate (2000 rpm) followed by an incubation at room temperature for 90 minutes in the dark. Reaction is stopped by adding of 60 μl binding buffer for FP/cAMP (kit component).
(§6) Each assay plate contained wells with vehicle controls (1% DMSO) for the measurement of non-inhibited reaction (=100% control) and wells without enzyme as 0% controls.

[1] = Metabolic stability in pooled liver microsomes; assay type: in vitro ADME; conditions: human liver microsomes, 37° C., 1 mg/mL microsomal protein, test compound 1 μM, NADPH; for half-life at 1 μM: pooled liver microsomes, pH 7.6, read-out: Half-life - t½
Method: The metabolic stability of the compounds according to the invention has been investigated as follows:
The metabolic degradation of the test compound was assayed at 37° C. with pooled liver microsomes from various species. The final incubation volume of 100 μl per time point contains TRIS buffer pH 7.6 at room temperature (0.1 M), magnesium chloride (5 mM), microsomal protein (1 mg/mL for human and dog, 0.5 mg/mL for other species) and the test compound at a final concentration of 1 μM. Following a short preincubation period at 37° C., the reactions were initiated by addition of betanicotinamide adenine dinucleotide phosphate, reduced form (NADPH, 1 mM), and terminated by transferring an aliquot into solvent after different time points. […] The half-life was determined by the slope of the semi-logarithmic plot of the concentration-time profile.

PDE2A = PDE2A (Homo sapiens, UniProt O00408); test: PDE 2A assay with fluorescent substrate (IMAP, fluorescence polarization); assay type: biochemical; conditions: read-out: PDE2 IC50
Description: as §1, §2, §3, §4, §5, §6

[2] = Animal experiments and sample analysis: plasma, brain and CSF concentration; assay type: in vivo; conditions: rat; for concentration at 2 h / Kp at 2 h: 2 h between administration and CSF sampling; for concentration at 2 h / concentration at 0.5 h: doses of 10.0 or 5 μmol/kg; for concentration at 0.5 h / Kp at 0.5 h: 0.5 h between administration and CSF sampling
Method: Test compounds were administered to animals (rat) different routes at doses of 10.0 or 5 μmol/kg, (both oral and intravenous). After compound administration, the animals were sacrificed in a CO2 chamber and CSF samples were carefully collected by puncture of the cisterna magna. Immediately after CSF sampling, blood was taken by heart puncture and brains were dissected out. Blood was collected in EDTA-coated microvettes and plasma was prepared by centrifugation. Concentration of the test compounds in plasma, CSF or brain homogenate was determined using HPLC-MS-MS.

[3] = brain, read-out: c(brain)/c(plasma)

Sequence of PDE2A (O00408 whole entry, species assumed): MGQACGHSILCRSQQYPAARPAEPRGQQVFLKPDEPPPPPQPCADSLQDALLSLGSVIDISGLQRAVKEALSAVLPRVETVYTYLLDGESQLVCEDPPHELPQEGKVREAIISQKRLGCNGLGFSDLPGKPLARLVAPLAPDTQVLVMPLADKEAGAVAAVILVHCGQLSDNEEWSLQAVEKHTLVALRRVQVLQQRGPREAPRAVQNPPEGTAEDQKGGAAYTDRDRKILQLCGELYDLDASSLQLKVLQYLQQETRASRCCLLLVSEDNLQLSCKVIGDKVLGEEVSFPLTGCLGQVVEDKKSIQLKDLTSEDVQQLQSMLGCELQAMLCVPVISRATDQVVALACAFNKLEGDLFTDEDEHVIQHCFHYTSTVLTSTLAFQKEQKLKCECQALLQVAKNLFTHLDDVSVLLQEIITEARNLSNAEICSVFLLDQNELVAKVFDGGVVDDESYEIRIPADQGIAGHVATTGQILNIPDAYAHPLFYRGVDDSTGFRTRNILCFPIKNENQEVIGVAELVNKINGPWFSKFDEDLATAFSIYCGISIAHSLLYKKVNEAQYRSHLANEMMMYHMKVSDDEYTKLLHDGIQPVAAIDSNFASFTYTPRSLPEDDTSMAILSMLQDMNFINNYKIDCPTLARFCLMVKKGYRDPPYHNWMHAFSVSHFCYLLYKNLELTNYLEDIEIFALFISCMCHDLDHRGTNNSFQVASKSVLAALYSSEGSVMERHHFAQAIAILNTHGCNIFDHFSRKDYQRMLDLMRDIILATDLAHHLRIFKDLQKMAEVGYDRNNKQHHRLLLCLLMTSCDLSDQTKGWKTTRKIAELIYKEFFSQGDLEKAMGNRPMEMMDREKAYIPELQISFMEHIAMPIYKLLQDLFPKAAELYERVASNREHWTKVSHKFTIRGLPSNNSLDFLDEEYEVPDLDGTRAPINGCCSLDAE
Sequence of PDE10 (Q9Y233 whole entry, species assumed): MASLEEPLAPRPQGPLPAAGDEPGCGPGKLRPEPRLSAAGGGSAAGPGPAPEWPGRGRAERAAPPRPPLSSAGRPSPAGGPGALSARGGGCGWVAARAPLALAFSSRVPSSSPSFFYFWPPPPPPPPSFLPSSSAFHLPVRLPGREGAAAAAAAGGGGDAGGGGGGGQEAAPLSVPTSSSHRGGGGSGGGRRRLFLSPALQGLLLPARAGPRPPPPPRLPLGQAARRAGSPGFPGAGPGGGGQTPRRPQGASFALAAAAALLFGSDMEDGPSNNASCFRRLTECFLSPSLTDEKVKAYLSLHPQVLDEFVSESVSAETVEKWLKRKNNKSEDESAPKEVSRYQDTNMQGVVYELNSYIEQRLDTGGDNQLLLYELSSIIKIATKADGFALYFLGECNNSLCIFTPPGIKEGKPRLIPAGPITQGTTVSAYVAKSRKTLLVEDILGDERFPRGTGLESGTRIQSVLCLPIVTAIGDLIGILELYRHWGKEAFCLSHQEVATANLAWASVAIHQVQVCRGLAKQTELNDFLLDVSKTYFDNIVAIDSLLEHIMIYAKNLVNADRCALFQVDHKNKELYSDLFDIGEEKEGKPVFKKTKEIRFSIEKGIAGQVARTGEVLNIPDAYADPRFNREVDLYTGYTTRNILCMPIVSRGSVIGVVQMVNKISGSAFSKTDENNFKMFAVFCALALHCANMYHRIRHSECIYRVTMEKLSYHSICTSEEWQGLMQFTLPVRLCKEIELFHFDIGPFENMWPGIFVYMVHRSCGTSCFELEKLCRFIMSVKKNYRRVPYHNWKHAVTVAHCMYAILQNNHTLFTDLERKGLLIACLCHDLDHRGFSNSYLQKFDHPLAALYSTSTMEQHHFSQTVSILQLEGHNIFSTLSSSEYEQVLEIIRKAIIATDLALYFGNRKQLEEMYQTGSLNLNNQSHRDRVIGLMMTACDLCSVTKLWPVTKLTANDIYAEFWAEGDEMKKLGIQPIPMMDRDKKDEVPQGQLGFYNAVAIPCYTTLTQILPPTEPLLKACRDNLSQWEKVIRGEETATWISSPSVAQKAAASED

Structure (SMILES) | IC50 (PDE10) [µM] | Half-life - t½ [1] [h] | IC50 (PDE2A) [µM] | other results
Cc1ccc2nc(C)c3nnc(-c4cc(C5(O)CCC5)ccc4C)n3c2n1 [Example 102] | 2.26 | 2.17 | 0.103 | –
Cc1nc2ccc(C(C)C)nc2n2c(-c3cc(OCC(C)(C)O)ccc3F)nnc12 [Example 52] | 1.2 | 2.17 | 0.011 | –
Cc1ccc2nc(C)c3nnc(-c4cc(C(O)C(C)C)ccc4Cl)n3c2n1 (centres unmarked) [Example 59] | 0.936 | – | 0.008 | half-life at 1 μM [1]: 0.817 h
Cc1ccc(C2(O)CCC2)cc1-c1nnc2c(C)nc3cccnc3n12 [Example 73] | – | 2.17 | 0.189 | –
Cc1ccc2nc(C)c3nnc(-c4cc(OCC(C)(C)O)ccc4Cl)n3c2n1 [Example 46] | – | 2.17 | 0.05 | –
Cc1ccc2nc(C)c3nnc(-c4cc(C(C)(C)O)ccc4Cl)n3c2n1 [Example 71] | – | 2.17 | 0.109 | –
Cc1ccc2nc(C)c3nnc(-c4cc(C(C)O)ccc4Cl)n3c2n1 (centres unmarked) [Example 63] | 1.71 | 2.17 | 0.06 | –
Cc1ccc(OCC(C)(C)O)cc1-c1nnc2c(C)nc3ccc(C(C)C)nc3n12 [Example 51] | – | 2.17 | 0.009 | –
Cc1ccc(OCC2(O)CCC2)cc1-c1nnc2c(C)nc3cccnc3n12 [Example 50] | 7.12 | 2.17 | 0.194 | –
Cc1nc2cccnc2n2c(-c3cc(OC4COCCC4O)ccc3Cl)nnc12 (single isomer, unassigned) [Example 58] | 0.663 | 2.17 | 0.143 | –
Cc1nc2cccnc2n2c(-c3cc(C(C)(C)O)ccc3Cl)nnc12 [Example 70] | 8.62 | 2.17 | 0.163 | concentration at 2 h ([2]; brain, read-out: conc brain): 695 nM; Kp at 2 h [2, 3]: 0.29; concentration at 2 h ([2]; plasma, read-out: conc plasma): 2380 nM; concentration at 2 h ([2]; read-out: conc CSF): 276 nM; Kp at 2 h ([2]; read-out: c(CSF)/c(plasma)): 0.12
Cc1nc2cccnc2n2c(-c3cc(C4(O)CCC4)ccc3F)nnc12 [Example 86] | 5.75 | – | 0.434 | –
Cc1nc2cccnc2n2c(-c3cc(OC[C@@H](C)O)ccc3Cl)nnc12 [Example 17] | – | 2.17 | – | –
Cc1nc2ccc(C3(C)CC3)nc2n2c(-c3cc(C(C)(C)O)ccc3F)nnc12 [Example 72] | – | 2.17 | 0.032 | –
CCC(O)c1ccc(Cl)c(-c2nnc3c(C)nc4ccc(C)nc4n23)c1 (centres unmarked) [Example 62] | – | 2.17 | 0.011 | –
Cc1ccc(CC(C)(C)O)cc1-c1nnc2c(C)nc3ccc(C4CC4)nc3n12 [Example 81] | 5.38 | – | 0.007 | –
Cc1ccc2nc(C)c3nnc(-c4cc(C5(O)CCC5)ccc4Cl)n3c2n1 [Example 89] | 0.187 | 2.17 | – | –

Structure (SMILES) | IC50 (PDE10) [µM] | Half-life - t½ [1] [h] | IC50 (PDE2A) [µM] | other results
Cc1ccc(O)cc1-c1nnc2c(C)nc3ccc(C4CC4)nc3n12 [Example 6] | 0.01 | – | 0.003 | –
Cc1nc2ccc(C3CC3)nc2n2c(-c3cc(C4(O)CCOCC4)ccc3F)nnc12 [Example 95] | 1.37 | – | 0.005 | –
Cc1nc2cccnc2n2c(-c3cc(C4(O)CCOC4)ccc3Cl)nnc12 (single isomer, unassigned) [Example 99] | 1.51 | 2.17 | 0.125 | –
Cc1ccc(O)cc1-c1nnc2c(C)nc3ccc(C(C)C)nc3n12 [Example 7] | 0.016 | – | 0.003 | –
Cc1nc2cccnc2n2c(-c3cc(OCC4(O)CCC4)ccc3F)nnc12 [Example 53] | 2.83 | – | 0.14 | –
Cc1nc2cc(C(C)C)cnc2n2c(-c3cc(OCC(C)(C)O)ccc3Cl)nnc12 [Example 54] | 0.798 | 2.17 | 0.058 | –
Cc1ccc(OC2COCC2O)cc1-c1nnc2c(C)nc3ccc(C4CC4)nc3n12 (racemic) [Example 57] | – | 2.17 | – | –
Cc1nc2ccc(C3CC3)nc2n2c(-c3cc(CCC(C)(C)O)ccc3Cl)nnc12 [Example 69] | 0.891 | – | 0.001 | –
Cc1ccc(CCC(C)(C)O)cc1-c1nnc2c(C)nc3cccnc3n12 [Example 67] | 3.91 | 2.17 | 0.175 | –
Cc1nc2cccnc2n2c(-c3cc(OCC(C)(C)O)ccc3Cl)nnc12 [Example 44] | 6.04 | 2.17 | 0.156 | concentration at 0.5 h ([2]; brain, read-out: conc brain): 670 nM; Kp at 0.5 h [2, 3]: 0.31; concentration at 0.5 h ([2]; plasma, read-out: conc plasma): 2190 nM; concentration at 0.5 h ([2]; read-out: conc CSF): 228 nM; Kp at 0.5 h ([2]; read-out: c(CSF)/c(plasma)): 0.1
Cc1ccc(C(C)(C)CO)cc1-c1nnc2c(C)nc3ccc(C4CC4)nc3n12 [Example 100] | 3.86 | – | 0.017 | half-life at 1 μM [1]: 0.2 h
Cc1nc2ccc(C(C)C)nc2n2c(-c3cc(C4(O)CCC4)ccc3Cl)nnc12 [Example 91] | 0.077 | – | 0.001 | –
Cc1cnc2c(c1)nc(C)c1nnc(-c3cc(O)ccc3Cl)n12 [Example 11] | 0.123 | – | 0.059 | –
Cc1ccc(C2(O)CCOCC2)cc1-c1nnc2c(C)nc3ccc(C4CC4)nc3n12 [Example 103] | 1.01 | – | 0.003 | –
Cc1ccc(C2(O)CCOCC2O)cc1-c1nnc2c(C)nc3ccc(C4CC4)nc3n12 (racemic) [Example 104] | 7.72 | 2.17 | 0.036 | –
Cc1ccc(C(C)(C)O)cc1-c1nnc2c(C)nc3ccc(C(C)C)nc3n12 [Example 78] | 2.85 | – | 0.01 | –
Cc1nc2ccc(C3CC3)nc2n2c(-c3cc(C4(O)CCOCC4)ccc3Cl)nnc12 [Example 94] | 2.72 | – | 0.001 | –

Further lines, with some results ahead:

IC50 (PDE10) [µM] | Half-life - t½ [1] [h] | IC50 (PDE2A) [µM] | Structure (SMILES) | other results
3.23 | 2.17 | 0.04 | Cc1ccc(C2(O)CCOCC2O)cc1-c1nnc2c(C)nc3ccc(C4CC4)nc3n12 (single isomer, unassigned) [Example 104a] | –
9.76 | 2.17 | 0.03 | Cc1ccc(C2(O)CCOCC2O)cc1-c1nnc2c(C)nc3ccc(C4CC4)nc3n12 (single isomer, unassigned) [Example 104b] | –
– | 2.17 | – | Cc1nc2ccc(C3CC3)nc2n2c(-c3cc(OC4COCC4O)ccc3Cl)nnc12 (racemic) [Example 58a] | –
1.83 | – | 0.004 | Cc1nc2ccc(C3CC3)nc2n2c(-c3cc(OC4COCCC4O)ccc3Cl)nnc12 (single isomer, unassigned) [Example 109d] | –
– | 2.17 | – | Cc1nc2ccc(C3CC3)nc2n2c(-c3cc(OC4COCC4O)ccc3Cl)nnc12 (single isomer, unassigned) [Example 58b] | –
7980 | – | 0.622 | Cc1nc2ccc(C(F)(F)F)nc2n2c(-c3cc(C(C)(C)O)ccc3F)nnc12 [Example 103c] | –
4.51 | – | 0.109 | Cc1nc2cccnc2n2c(-c3cc(OCC4(O)CC4)ccc3Cl)nnc12 [Example 43a] | –
1.67 | – | 0.014 | Cc1nc2ccc(C3CC3)nc2n2c(-c3cc(OC4COCCC4O)ccc3Cl)nnc12 (single isomer, unassigned) [Example 109a] | –
1.09 | – | 0.009 | Cc1nc2ccc(C3CC3)nc2n2c(-c3cc(OC4CCOCC4O)ccc3Cl)nnc12 (single isomer, unassigned) [Example 109b] | –
– | 2.17 | – | Cc1ccc(OC2COCC2O)cc1-c1nnc2c(C)nc3ccc(C4CC4)nc3n12 (single isomer, unassigned) [Example 57a] | –
2.44 | 2.17 | – | Cc1nc2cccnc2n2c(-c3cc(OC4COCC4O)ccc3Cl)nnc12 (single isomer, unassigned) [Example 55a] | –
1.41 | – | 0.429 | Cc1nc2ccc(C(F)(F)F)nc2n2c(-c3cc(OC4COCC4O)ccc3F)nnc12 (single isomer, unassigned) [Example 106a] | –
1.36 | – | 0.009 | Cc1nc2ccc(C3CC3)nc2n2c(-c3cc(OC4CCOCC4O)ccc3Cl)nnc12 (single isomer, unassigned) [Example 109c] | –
2.5 | – | 0.05 | Cc1nc2ccc(C(F)(F)F)nc2n2c(-c3cc(OC4COCC4O)ccc3F)nnc12 (single isomer, unassigned) [Example 106b] | –
– | 2.17 | – | Cc1nc2ccc(C3CC3)nc2n2c(-c3cc(OC4COCC4O)ccc3Cl)nnc12 (single isomer, unassigned) [Example 58c] | –
